Measured values as given in the supplement of paper PMC10307832.

Experiments:
Assay in all cases: relative viability (nuclei count vs DMSO), 5 days (fraction); higher = more cells survive
NCI-H2023 = tested on: NCI-H2023
Procedure, shortened: (§1)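 Medians of duplicate plates are given as relative viability. That measure is the nuclei count in treated wells divided by the count in vehicle wells. Counts were taken on 4× images of lung cancer cell lines in 1536-well plates, 5 days after pin-tool dosing the day after seeding with one drug alone or a fixed anchor-drug dose plus five library-drug doses (not always all listed) in √10 steps.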

UMC-11 = tested on: UMC-11
Procedure, shortened: as §1

NCI-H1395 = tested on: NCI-H1395
Procedure, shortened: as §1

NCI-H1563 = tested on: NCI-H1563
Procedure, shortened: as §1

NCI-H1915 = tested on: NCI-H1915
Procedure, shortened: as §1

CAL-12T = tested on: CAL-12T
Procedure, shortened: as §1

NCI-H1734 = tested on: NCI-H1734
Procedure, shortened: as §1

NCI-H2405 = tested on: NCI-H2405
Procedure, shortened: as §1

HCC-44 = tested on: HCC-44
Procedure, shortened: as §1

A-427 = tested on: A-427
Procedure, shortened: as §1

SW 1573 = tested on: SW 1573
Procedure, shortened: as §1

EPLC-272H = tested on: EPLC-272H
Procedure, shortened: as §1

LCLC-97TM1 = tested on: LCLC-97TM1
Procedure, shortened: as §1

NCI-H2347 = tested on: NCI-H2347
Procedure, shortened: as §1

NCI-H1975 = tested on: NCI-H1975
Procedure, shortened: as §1

COR-L 105 = tested on: COR-L 105
Procedure, shortened: as §1

NCI-H520 = tested on: NCI-H520
Procedure, shortened: as §1

NCI-H838 = tested on: NCI-H838
Procedure, shortened: as §1

HCC-15 = tested on: HCC-15
Procedure, shortened: as §1

NCI-H1792 = tested on: NCI-H1792
Procedure, shortened: as §1

LC-2-ad = tested on: LC-2-ad
Procedure, shortened: as §1

Cc1csc(=NC2CCCCC2)n1/N=C/c1ccc(O)c(O)c1O [MIM1] + C[C@]1(O)C[C@@H](c2nc(-c3ccc4ccc(-c5ccccc5)nc4c3)c3c(N)nccn32)C1 [Linsitinib] (partner 1 µM)
relative viability (NCI-H2023; first compound 0.2 µM): 0.625
relative viability (NCI-H2023; first compound 0.6325 µM): 0.739
relative viability (NCI-H2023; first compound 2 µM): 0.615
relative viability (NCI-H2023; first compound 6.325 µM): 0.482
relative viability (NCI-H2023; first compound 20 µM): 0.443
relative viability (UMC-11; first compound 0.2 µM): 1.02
relative viability (UMC-11; first compound 0.6325 µM): 1.01
relative viability (UMC-11; first compound 2 µM): 1.02
relative viability (UMC-11; first compound 6.325 µM): 0.66
relative viability (UMC-11; first compound 20 µM): 0.233
relative viability (NCI-H1395; first compound 0.2 µM): 0.927
relative viability (NCI-H1395; first compound 0.6325 µM): 1.03
relative viability (NCI-H1395; first compound 2 µM): 1.07
relative viability (NCI-H1395; first compound 6.325 µM): 0.606
relative viability (NCI-H1395; first compound 20 µM): 0.355
relative viability (NCI-H1563; first compound 0.2 µM): 1.13
relative viability (NCI-H1563; first compound 0.6325 µM): 1.29
relative viability (NCI-H1563; first compound 2 µM): 1.1
relative viability (NCI-H1563; first compound 6.325 µM): 0.977
relative viability (NCI-H1563; first compound 20 µM): 0.957
relative viability (NCI-H1915; first compound 0.2 µM): 1.09
relative viability (NCI-H1915; first compound 0.6325 µM): 1.03
relative viability (NCI-H1915; first compound 2 µM): 1.08
relative viability (NCI-H1915; first compound 6.325 µM): 0.978
relative viability (NCI-H1915; first compound 20 µM): 0.872
relative viability (CAL-12T; first compound 0.2 µM): 0.803
relative viability (CAL-12T; first compound 0.6325 µM): 0.677
relative viability (CAL-12T; first compound 2 µM): 0.695
relative viability (CAL-12T; first compound 6.325 µM): 0.634
relative viability (CAL-12T; first compound 20 µM): 0.225
relative viability (NCI-H1734; first compound 0.2 µM): 0.829
relative viability (NCI-H1734; first compound 0.6325 µM): 1.01
relative viability (NCI-H1734; first compound 2 µM): 0.853
relative viability (NCI-H1734; first compound 6.325 µM): 0.754
relative viability (NCI-H1734; first compound 20 µM): 0.422
relative viability (NCI-H2405; first compound 0.2 µM): 0.906
relative viability (NCI-H2405; first compound 0.6325 µM): 1.08
relative viability (NCI-H2405; first compound 2 µM): 0.946
relative viability (NCI-H2405; first compound 6.325 µM): 0.778
relative viability (NCI-H2405; first compound 20 µM): 0.742
relative viability (HCC-44; first compound 0.2 µM): 0.67
relative viability (HCC-44; first compound 0.6325 µM): 0.713
relative viability (HCC-44; first compound 2 µM): 0.555
relative viability (HCC-44; first compound 6.325 µM): 0.555
relative viability (HCC-44; first compound 20 µM): 0.141
relative viability (A-427; first compound 0.2 µM): 1.09
relative viability (A-427; first compound 0.6325 µM): 1.14
relative viability (A-427; first compound 2 µM): 1.11
relative viability (A-427; first compound 6.325 µM): 1.07
relative viability (A-427; first compound 20 µM): 0.505
relative viability (SW 1573; first compound 0.2 µM): 0.872
relative viability (SW 1573; first compound 0.6325 µM): 0.792
relative viability (SW 1573; first compound 2 µM): 0.678
relative viability (SW 1573; first compound 6.325 µM): 0.767
relative viability (SW 1573; first compound 20 µM): 0.607
relative viability (EPLC-272H; first compound 0.2 µM): 1.06
relative viability (EPLC-272H; first compound 0.6325 µM): 1.15
relative viability (EPLC-272H; first compound 2 µM): 1.17
relative viability (EPLC-272H; first compound 6.325 µM): 1.26
relative viability (EPLC-272H; first compound 20 µM): 0.988
relative viability (LCLC-97TM1; first compound 0.2 µM): 0.171
relative viability (LCLC-97TM1; first compound 0.6325 µM): 0.226
relative viability (LCLC-97TM1; first compound 2 µM): 0.166
relative viability (LCLC-97TM1; first compound 6.325 µM): 0.207
relative viability (LCLC-97TM1; first compound 20 µM): 0.214
relative viability (NCI-H2347; first compound 0.2 µM): 0.985
relative viability (NCI-H2347; first compound 0.6325 µM): 0.994
relative viability (NCI-H2347; first compound 2 µM): 0.98
relative viability (NCI-H2347; first compound 6.325 µM): 0.736
relative viability (NCI-H2347; first compound 20 µM): 0.656
relative viability (NCI-H1975; first compound 0.2 µM): 0.869
relative viability (NCI-H1975; first compound 0.6325 µM): 1.12
relative viability (NCI-H1975; first compound 2 µM): 0.796
relative viability (NCI-H1975; first compound 6.325 µM): 0.525
relative viability (NCI-H1975; first compound 20 µM): 0.546
relative viability (COR-L 105; first compound 0.2 µM): 0.899
relative viability (COR-L 105; first compound 0.6325 µM): 1.04
relative viability (COR-L 105; first compound 2 µM): 0.898
relative viability (COR-L 105; first compound 6.325 µM): 0.962
relative viability (COR-L 105; first compound 20 µM): 0.796
relative viability (NCI-H520; first compound 0.2 µM): 0.983
relative viability (NCI-H520; first compound 0.6325 µM): 1.1
relative viability (NCI-H520; first compound 2 µM): 0.921
relative viability (NCI-H520; first compound 6.325 µM): 0.64
relative viability (NCI-H520; first compound 20 µM): 0.5
relative viability (NCI-H838; first compound 0.2 µM): 0.887
relative viability (NCI-H838; first compound 0.6325 µM): 1.1
relative viability (NCI-H838; first compound 2 µM): 0.851
relative viability (NCI-H838; first compound 6.325 µM): 0.765
relative viability (NCI-H838; first compound 20 µM): 0.464
relative viability (HCC-15; first compound 0.2 µM): 0.901
relative viability (HCC-15; first compound 0.6325 µM): 0.808
relative viability (HCC-15; first compound 2 µM): 0.941
relative viability (HCC-15; first compound 6.325 µM): 0.476
relative viability (HCC-15; first compound 20 µM): 0.211
relative viability (NCI-H1792; first compound 0.2 µM): 0.551
relative viability (NCI-H1792; first compound 0.6325 µM): 0.438
relative viability (NCI-H1792; first compound 2 µM): 0.481
relative viability (NCI-H1792; first compound 6.325 µM): 0.383
relative viability (NCI-H1792; first compound 20 µM): 0.503
relative viability (LC-2-ad; first compound 0.2 µM): 0.794
relative viability (LC-2-ad; first compound 0.6325 µM): 0.744
relative viability (LC-2-ad; first compound 2 µM): 0.856
relative viability (LC-2-ad; first compound 6.325 µM): 0.547
relative viability (LC-2-ad; first compound 20 µM): 0.132
